20 compounds from ChEMBL document CHEMBL5241136, “Design, synthesis and evaluation of heterocyclic 2-phenylacetate derivatives as water-soluble rapid recovery hypnotics” (Bioorg Med Chem Lett, 2023) can be followed below.

Data set [1] can be described thus: n-Octanol/water partition coefficient, logP of the compound. The format is physicochemical.
The subject of data set [2] is Mus musculus. Put plainly: Anesthetic activity in mouse assessed as concentration required to induce hypnotic effect. In kind it is functional.
Data set [3] can be described thus: Toxicity in mouse assessed as lethal dose. The note with it: in vivo.
A short description of data set [4]: Therapeutic index, ratio of LD50 for toxicity in mouse to HD50 for anesthetic activity in mouse assessed as concentration required to induce hypnotic effect. The note with it: read-out: TI.
The target in data set [5] is GABA-A receptor; anion channel (Homo sapiens) (UniProt P14867+P47870+P18507+P28472+P48169+Q99928+Q9UN88+P34903+O00591+O14764+Q8N1C3+P18505+P78334+P47869+P31644+Q16445). The data set can be described thus: Inhibition of GABAA receptor (unknown origin) at 50 uM by radioligand receptor binding assay relative to control. In kind it is protein-complex assay.
[6] abbreviates: n-octanol/water, read-out: logP.

For the compound `COc1cc(CC(=O)OC(C)C)ccc1OCC(=O)N1CCN(C(=O)OC(C)(C)C)CC1`, the logP in data set [1] (setting [6]) is 1.8. Besides, the 50% effective dose (ED50) in data set [2] is 38.2 mg/kg. Further, the LD50 in data set [3] stood at 264 mg/kg. The selectivity ratio in data set [4] came out at 6.9. In data set [5], the inhibition turned out to be 69.7%.
Take `CCCOC(=O)Cc1ccc(OCC(=O)N2CCNCC2)c(OC)c1`: in data set [1] (setting [6]), the logP was determined as 1.7. Moreover, in data set [2], the ED50 was above 100 mg/kg. Also, the inhibition in data set [5] came to 38.6%.
The like results for `CCOC(=O)Cc1ccc(OCC(=O)N2CCNCC2)c(OC)c1` were, in that order, 1.5, above 100 mg/kg and 44.5%.
As for `CCCOC(=O)Cc1ccc(OCC(=O)N2CCOCC2)c(OC)c1`, in data set [1] (setting [6]), the logP is 1.5. Further, the median effective dose (ED50) in data set [2] is 52.9 mg/kg. Further, the 50% lethal dose (LD50) in data set [3] was 339 mg/kg. The selectivity ratio in data set [4] is 6.4. This compound displayed an inhibition in data set [5] of 46.3%.
With `CCCOC(=O)Cc1ccc(OCC(=O)N2CCN(C(=O)OC(C)(C)C)CC2)c(OC)c1`, the logP in data set [1] (setting [6]) came to 1.9. For the same compound, the ED50 in data set [2] was found to be 43.6 mg/kg. For the same compound, the LD50 in data set [3] worked out at 340 mg/kg. Moreover, the selectivity ratio in data set [4] stood at 7.8. In data set [5], this compound registered an inhibition of 36.1%.
`CCCOC(=O)Cc1ccc(OCC(=O)N2CCN(C(=O)OC(C)(C)C)CC2)c(OCC)c1`: the logP in data set [1] (setting [6]) came out at 2.3. Also, the 50% effective dose (ED50) in data set [2] was 32.9 mg/kg. The LD50 in data set [3] worked out at 240 mg/kg. Further, the selectivity ratio in data set [4] was 7.3. Further, the inhibition in data set [5] turned out to be 33.4%.
Turning to `CCCOC(=O)Cc1ccc(OCC(=O)N2CCCC2)c(OC)c1`, in data set [1] (setting [6]), the logP worked out at 1.8. In addition, the ED50 in data set [2] is 64.2 mg/kg. This compound also showed an inhibition in data set [5] of 72.5%.
Turning to `CCOC(=O)Cc1ccc(OCC(=O)N2CCCC2)c(OCC)c1`, the log partition coefficient (logP) in data set [1] (setting [6]) stood at 2.1. The median effective dose (ED50) in data set [2] turned out to be 56 mg/kg. In data set [5], this compound returned an inhibition of 26.5%.
As for `CCOC(=O)Cc1cc(OCC)c(OCC(=O)N(CC)CC)cc1F`, the lipophilicity (logP) in data set [1] (octanol/water) is 2.1.
Consider `CCCOC(=O)Cc1ccc(OCC(=O)N2CCCC2)c(OCC)c1`, for which the logP in data set [1] (setting [6]) was 2.3. Also, the median effective dose (ED50) in data set [2] stood at 60.8 mg/kg. This compound gave an inhibition in data set [5] of 47.8%.
With `CCOC(=O)Cc1ccc(OCC(=O)N2CCN(C(=O)OC(C)(C)C)CC2)c(OCC)c1`, in data set [1] (setting [6]), the logP stood at 1.8. Also, the ED50 in data set [2] came to 30.6 mg/kg. In data set [3], the LD50 stood at 217 mg/kg. The selectivity ratio in data set [4] was 7.1. In data set [5], this compound showed an inhibition of 45.2%.
Regarding `CCOC(=O)Cc1ccc(OCC(=O)N2CCN(C(=O)OC(C)(C)C)CC2)c(OC)c1`, the lipophilicity (logP) in data set [1] (setting [6]) was found to be 1.5. Also, the ED50 in data set [2] amounted to 35.2 mg/kg. Besides, the LD50 in data set [3] was determined as 257 mg/kg. Further, the selectivity ratio in data set [4] came out at 7.3. In data set [5], this compound registered an inhibition of 55.2%.
Take `CCOC(=O)Cc1ccc(OCC(=O)N2CCCC2)c(OC)c1`: the logP in data set [1] (setting [6]) was 1.3. Besides, the median effective dose (ED50) in data set [2] came out at 56.8 mg/kg. The same compound yielded an inhibition in data set [5] of 48.8%.
For `CCOc1cc(CC(=O)OC(C)C)ccc1OCC(=O)N1CCN(C(=O)OC(C)(C)C)CC1`, the log partition coefficient (logP) in data set [1] (setting [6]) came out at 2.1. In addition, the ED50 in data set [2] was 36.8 mg/kg. For the same compound, the LD50 in data set [3] worked out at 258 mg/kg. Moreover, the selectivity ratio in data set [4] is 7. In data set [5], this compound gave an inhibition of 29.3%.
As for `COc1cc(CC(=O)OC(C)C)ccc1OCC(=O)N1CCNCC1`, the logP in data set [1] (setting [6]) was 1.8. Also, the ED50 in data set [2] was above 100 mg/kg. Further, the inhibition in data set [5] was 57.8%.
Taken in the same sequence, the figures for `CCCOC(=O)Cc1ccc(OCC(=O)N2CCNCC2)c(OCC)c1` were 1.7, above 100 mg/kg and 23.1%.
The like results for `CCOc1cc(CC(=O)OC(C)C)ccc1OCC(=O)N1CCNCC1` were, in that order, 1.5, above 100 mg/kg and 36.4%.
Taken in the same sequence, the figures for `CCOC(=O)Cc1ccc(OCC(=O)N2CCNCC2)c(OCC)c1` were 2, above 100 mg/kg and 65.2%.
In the case of `COc1cc(CC(=O)OC(C)C)ccc1OCC(=O)N1CCCC1`, in data set [1] (setting [6]), the log partition coefficient (logP) is 1.9. The ED50 in data set [2] stood at 59.9 mg/kg. This compound also showed an inhibition in data set [5] of 55.6%.
`CCOc1cc(CC(=O)OCC(F)(F)F)ccc1OCC(=O)N(CC)CC`: in data set [1] (setting [6]), the log partition coefficient (logP) was 2.6.
